Experimental data as given in patent US20190055231A1, “BACE1 INHIBITORS” (Hoffmann-La Roche Inc., priority 2016, published 2019).
pKd: −log10 of the molar value.

Tests used:
BACE1 = BACE1 (Homo sapiens, UniProt P56817); assay: BACE1 KD SPR assay; format: binding; conditions: Surface Plasmon Resonance
Experimental: Surface Plasmon Resonance measurements were performed on a Biacore T200 instrument. Immobilization of BACE-1 was performed by standard amine coupling chemistry on a CMS sensor to achieve protein surface density of ˜8000 pg/mm2 (RU). Immobilization was performed using the acetate buffer (25 mM Na acetate, 150 mM NaCl, 0.01% P20, 3 mM EDTA, pH 4.5) as the running buffer at 25° C. In the first step the carboxyl groups of CMS sensor surface were transformed to the reactive succinimide esters by contacting the sensor surface 7 minutes with a solution of 0.2 M N-ethyl-N-dimethylaminopolycarboodiimide (EDC) and 0.05 M N-hydroxysuccinimide (NHS). After the activation, the sensor surface was contacted with (˜5 μgml-1 BACE1 protein solution in 10 mM sodium acetate coupling buffer (pH 4.5) to reach desired protein surface density. Finally, the excess of activated carboxylic groups on the surface was quenched with ethanolamine (1 M, pH 8.5, 7 min).
Binding assays were performed at 18° C. under the same buffer conditions as immobilization of the protein. Compounds were dissolved in DMSO as 10 mM stocks and diluted in running buffer to perform titration series (5 concentrations with dilution factor of 2) on a protein and reference (activated and deactivated CMS sensor surface) surfaces in parallel.

hERG channel = hERG channel (Homo sapiens, UniProt Q12809); assay: hERG IC20 assay; format: cell-based; conditions: human, hERG IC20 assay
From the text: The methods to determine the hERG IC20 values was described in Industrializing electrophysiology: HT automated patch clamp on SyncroPatch® 96 using instant frozen cells. Polonchuk L., Methods Mol Biol. 2014; 1183:81-92. (doi: 10.1007/978-1-4939-1096-0_5.) PMID:25023303
QT prolongation is a cardiovascular risk caused by drug candidates which inhibit the hERG channel (human ether a go-go). A sufficient safety margin between the hERG IC20 value and the free plasma concentration necessary to achieve the envisaged thereapeutic effects is desired (ICH. The nonclinical evaluation of the potential for delayed ventricular repolarization (QT interval prolongation) by human pharmaceuticals (S7B), issued as CPMP/ICH/423/02, adopted by CHMP in May 2005 (http://www.ich.org/cache/compo/276-254-1.html; Redfern W S, Carlsson L, Davis A S, Lynch W G, MacKenzie I, Palethorpe S, Siegl P K, Strang I, Sullivan A T, Wallis R, Camm A J, Hammond T G. Relationships between preclinical cardiac electrophysiology, clinical QT interval prolongation and torsade de pointes for a broad range of drugs: evidence for a provisional safety margin in drug development. Cardiovasc Res. 2003 Apr. 1; 58(1):32-45.)). Reducing the activity against efflux transporters expressed at the blood-brain-barrier such as P-glycoprotein P-gp, might result in reduction of the free plasma concentration by optimizing brain penetration.

Human P-gp = Human P-gp (Homo sapiens, UniProt P08183); assay: P-gp transport assay (human); format: in vitro ADME; conditions: efflux ratio
From the text: (§1) P-Gp Transport Assay (Human and Mouse) (P-Gp Assay)
(§2) In the assay of the P-gp efflux ratio ER as described hereinabove, a compound with ER<2.5 is regarded most suitable. In addition, compounds with low hERG channel binding are suitable as well.

Mouse P-gp = Mouse P-gp (Mus musculus, UniProt P21447); assay: P-gp transport assay (mouse); format: in vitro ADME; conditions: efflux ratio
From the text: as §1, §2

Plasma Aβ40 = assay: Cynomolgus monkey plasma Aβ40 determination; format: in vivo, Cynomolgus monkey (Macacaca fascicularis)
From the text: Cynomolgus Monkey (Macacaca fascicularis) Single Dose PK Study and Plasma Aβ40 Determination
Blood and plasma collection will always be performed in the treatment cage. The animal care keeper grabs either one arm or one leg through the bars. The hairs are shaved for better visibility of the vein. The blood vessel is squeezed, the vein is punctured by using a butterfly and blood is taken. Once enough blood has been withdrawn a cotton swab is placed over the injection site and the needle is gently removed. Bleeding is stopped by pressing a cotton swab on the wound. Plasma samples were taken between 5 min and 48 h.
Blood is transferred into a labeled EDTA-K2 Eppendorf tube and the sample is mixed by inverting the tubes several times. Blood is stored at −20° C.
Aβ determination in cynomolgous plasma samples was done after solid phase extraction (Lanz, T. et al., J. of Neuroscience Methods, 2006, 157:71-81). Frozen plasma samples were thawed in a 25° C. waterbath. […] Once samples were dried, they were stored at −80° C. or measured immediately. […]
Aβ concentration was determined following a modified protocol from Perkin-Elmer with a commercially available antibody against the N-terminal part of cynomolgus Aβ (6E10, Signet IG-39340) and an in-house C-terminal specific anti-Aβ40 antibody (BAP-24, Brockhaus M. et al., J. Neuroreport, 1998, 9:1481-1486). […]

Sequence of BACE1 (P56817 46-501): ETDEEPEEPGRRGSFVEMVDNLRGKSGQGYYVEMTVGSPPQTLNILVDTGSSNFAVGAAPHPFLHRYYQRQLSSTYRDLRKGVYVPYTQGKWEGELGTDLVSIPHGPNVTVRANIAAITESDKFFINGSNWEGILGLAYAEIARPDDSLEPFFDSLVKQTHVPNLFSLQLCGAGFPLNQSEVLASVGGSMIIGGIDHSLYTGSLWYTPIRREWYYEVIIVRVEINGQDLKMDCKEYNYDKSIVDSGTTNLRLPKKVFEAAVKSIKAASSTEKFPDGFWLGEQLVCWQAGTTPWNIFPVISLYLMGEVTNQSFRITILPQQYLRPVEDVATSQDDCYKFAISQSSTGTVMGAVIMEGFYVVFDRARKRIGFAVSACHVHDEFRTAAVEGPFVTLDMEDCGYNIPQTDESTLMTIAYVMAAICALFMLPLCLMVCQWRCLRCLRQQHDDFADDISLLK
Sequence of hERG channel (Q12809 whole entry): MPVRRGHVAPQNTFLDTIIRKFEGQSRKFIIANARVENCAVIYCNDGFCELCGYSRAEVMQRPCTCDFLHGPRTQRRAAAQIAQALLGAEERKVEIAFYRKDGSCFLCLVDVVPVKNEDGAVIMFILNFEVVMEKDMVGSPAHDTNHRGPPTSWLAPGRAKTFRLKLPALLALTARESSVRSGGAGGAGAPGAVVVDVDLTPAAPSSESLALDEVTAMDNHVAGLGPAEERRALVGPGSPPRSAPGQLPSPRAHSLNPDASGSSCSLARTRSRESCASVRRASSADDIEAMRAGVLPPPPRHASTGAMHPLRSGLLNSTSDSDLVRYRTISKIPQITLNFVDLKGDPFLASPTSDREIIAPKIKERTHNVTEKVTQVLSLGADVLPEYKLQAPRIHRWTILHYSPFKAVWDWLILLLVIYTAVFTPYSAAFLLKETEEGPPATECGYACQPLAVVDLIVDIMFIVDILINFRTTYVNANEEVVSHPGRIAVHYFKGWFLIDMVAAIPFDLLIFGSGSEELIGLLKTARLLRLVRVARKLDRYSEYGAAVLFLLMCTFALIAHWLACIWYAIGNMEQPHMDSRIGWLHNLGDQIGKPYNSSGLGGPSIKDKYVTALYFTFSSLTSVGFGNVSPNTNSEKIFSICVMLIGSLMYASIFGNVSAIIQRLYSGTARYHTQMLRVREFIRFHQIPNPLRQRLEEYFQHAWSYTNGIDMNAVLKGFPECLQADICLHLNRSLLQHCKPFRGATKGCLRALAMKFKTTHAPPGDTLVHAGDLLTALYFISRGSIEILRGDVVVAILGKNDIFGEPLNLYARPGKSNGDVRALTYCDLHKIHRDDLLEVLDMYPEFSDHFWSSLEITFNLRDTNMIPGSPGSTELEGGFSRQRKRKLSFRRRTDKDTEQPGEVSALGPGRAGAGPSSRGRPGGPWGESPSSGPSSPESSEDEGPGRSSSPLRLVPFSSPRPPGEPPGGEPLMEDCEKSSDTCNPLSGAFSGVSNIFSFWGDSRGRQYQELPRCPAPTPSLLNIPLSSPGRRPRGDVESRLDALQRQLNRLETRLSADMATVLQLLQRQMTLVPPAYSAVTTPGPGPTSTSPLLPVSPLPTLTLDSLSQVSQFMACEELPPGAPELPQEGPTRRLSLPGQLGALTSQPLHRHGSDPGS
Sequence of Mouse P-gp (P21447 whole entry): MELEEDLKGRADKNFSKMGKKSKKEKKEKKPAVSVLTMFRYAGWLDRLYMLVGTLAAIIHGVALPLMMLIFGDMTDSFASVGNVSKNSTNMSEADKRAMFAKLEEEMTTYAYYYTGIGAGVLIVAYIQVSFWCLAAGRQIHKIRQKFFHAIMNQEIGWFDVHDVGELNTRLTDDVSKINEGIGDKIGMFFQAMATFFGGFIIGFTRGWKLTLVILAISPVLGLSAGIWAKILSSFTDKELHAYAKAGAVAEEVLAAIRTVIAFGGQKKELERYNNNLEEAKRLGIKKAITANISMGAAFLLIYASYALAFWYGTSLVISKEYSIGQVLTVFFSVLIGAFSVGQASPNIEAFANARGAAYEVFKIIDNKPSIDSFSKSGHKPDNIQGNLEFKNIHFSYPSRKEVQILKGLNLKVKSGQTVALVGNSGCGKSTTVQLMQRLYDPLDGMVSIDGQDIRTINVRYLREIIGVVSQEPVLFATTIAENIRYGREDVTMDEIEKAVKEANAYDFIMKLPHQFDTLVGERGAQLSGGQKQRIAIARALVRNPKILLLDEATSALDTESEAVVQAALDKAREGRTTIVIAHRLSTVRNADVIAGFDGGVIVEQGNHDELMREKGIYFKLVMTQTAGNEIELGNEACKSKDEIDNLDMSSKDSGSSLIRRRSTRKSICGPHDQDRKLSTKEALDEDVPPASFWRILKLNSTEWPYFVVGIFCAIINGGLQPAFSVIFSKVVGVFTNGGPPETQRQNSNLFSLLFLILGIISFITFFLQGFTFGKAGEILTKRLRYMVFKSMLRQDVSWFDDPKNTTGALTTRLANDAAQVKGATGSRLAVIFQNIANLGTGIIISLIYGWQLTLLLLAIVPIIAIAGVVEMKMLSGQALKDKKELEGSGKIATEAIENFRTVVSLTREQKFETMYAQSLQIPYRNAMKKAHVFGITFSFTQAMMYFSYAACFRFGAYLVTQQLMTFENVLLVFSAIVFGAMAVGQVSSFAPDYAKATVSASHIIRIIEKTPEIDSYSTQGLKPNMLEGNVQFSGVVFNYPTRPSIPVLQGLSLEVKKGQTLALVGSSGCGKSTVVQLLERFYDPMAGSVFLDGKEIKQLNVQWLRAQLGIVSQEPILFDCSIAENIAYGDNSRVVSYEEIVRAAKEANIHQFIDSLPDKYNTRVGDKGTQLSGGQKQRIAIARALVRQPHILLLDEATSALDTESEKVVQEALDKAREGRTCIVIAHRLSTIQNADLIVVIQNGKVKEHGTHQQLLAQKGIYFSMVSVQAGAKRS
Sequence of Human P-gp (P08183 whole entry): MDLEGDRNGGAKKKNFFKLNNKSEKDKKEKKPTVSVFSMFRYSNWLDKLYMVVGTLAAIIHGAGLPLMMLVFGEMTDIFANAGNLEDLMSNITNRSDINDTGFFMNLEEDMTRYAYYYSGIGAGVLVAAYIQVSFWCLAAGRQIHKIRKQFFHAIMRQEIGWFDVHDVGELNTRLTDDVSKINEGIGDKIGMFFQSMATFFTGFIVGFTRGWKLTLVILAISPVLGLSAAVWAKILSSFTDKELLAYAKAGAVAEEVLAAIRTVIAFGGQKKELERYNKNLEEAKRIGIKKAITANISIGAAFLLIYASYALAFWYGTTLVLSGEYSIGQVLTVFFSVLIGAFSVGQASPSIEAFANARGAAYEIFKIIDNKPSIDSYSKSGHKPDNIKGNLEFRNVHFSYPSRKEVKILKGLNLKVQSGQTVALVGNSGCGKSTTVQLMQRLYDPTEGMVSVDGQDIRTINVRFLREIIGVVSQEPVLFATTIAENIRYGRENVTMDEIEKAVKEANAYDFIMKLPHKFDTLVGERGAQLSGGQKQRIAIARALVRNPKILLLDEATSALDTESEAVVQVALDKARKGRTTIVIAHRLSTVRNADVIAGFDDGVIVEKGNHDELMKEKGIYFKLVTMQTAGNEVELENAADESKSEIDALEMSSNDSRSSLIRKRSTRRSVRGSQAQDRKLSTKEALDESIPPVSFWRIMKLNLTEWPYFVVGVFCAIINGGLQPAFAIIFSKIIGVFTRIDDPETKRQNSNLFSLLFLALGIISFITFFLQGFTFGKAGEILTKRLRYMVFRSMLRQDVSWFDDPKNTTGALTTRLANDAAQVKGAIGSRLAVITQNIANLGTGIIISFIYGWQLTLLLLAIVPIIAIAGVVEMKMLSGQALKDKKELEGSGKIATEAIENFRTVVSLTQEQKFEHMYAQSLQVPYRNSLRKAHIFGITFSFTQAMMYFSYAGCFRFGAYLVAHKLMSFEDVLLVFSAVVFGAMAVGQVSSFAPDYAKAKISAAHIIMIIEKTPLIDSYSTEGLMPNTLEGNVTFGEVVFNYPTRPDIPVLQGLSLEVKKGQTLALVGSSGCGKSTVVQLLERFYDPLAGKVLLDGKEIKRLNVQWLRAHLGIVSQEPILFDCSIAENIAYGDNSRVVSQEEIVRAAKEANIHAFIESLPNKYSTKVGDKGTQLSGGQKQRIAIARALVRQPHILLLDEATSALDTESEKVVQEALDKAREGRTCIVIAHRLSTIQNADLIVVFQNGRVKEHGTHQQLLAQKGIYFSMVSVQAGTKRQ

Cc1cc(C#N)cnc1C(=O)Nc1ccc(F)c([C@@]2(C)N=C(N)O[C@H](C(F)(F)F)[C@@H]2F)n1 [Example 1, N-(6-((4R,5R,6S)-2-amino-5-fluoro-4-methyl-6-(trifluoromethyl)-5,6-dihydro-4H-1,3-oxazin-4-yl)-5-fluoropyridin-2-yl)-5-cyano-3-methylpicolinamide]
pKd (BACE1; 18° C., pH 4.5): 8.70
residence time (BACE1; t1/2=0.693/koff): 16 min
IC20 (hERG channel; instant frozen cells (hERG channel; cell line not named)): > 1000 nM
IC20 (hERG channel): > 1000 nM
Human P-gp ER (Human P-gp): 1.7
Mouse P-gp ER (Mouse P-gp): 3.5
Plasma Aβ-lowering 0.2 mg/kg at 24 h (Plasma Aβ40; 24 h post dose): 57%
Plasma Aβ-lowering 0.2 mg/kg at 48 h (Plasma Aβ40; 48 h post dose): 50%
